Experiment [1] has as its target GyrB ATPase activity (E. coli GyrA, E. coli GyrB) (Escherichia coli, UniProt P0AES6). Briefly: GyrB ATPase inhibition activity assay (ammonium molybdate/malachite green phosphate detection). It is filed as biochemical. Conditions: figure quoted may be an average of two or more results. Summed up:
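E. coli GyrA/GyrB (2.5 nM each) with 5 μg/ml sheared DNA and 250 μM ATP in 50 mM HEPES pH 7.5, 5.5 mM MgCl2, 75 mM ammonium acetate. Released phosphate detected with ammonium molybdate/malachite green reagent. IC50 may be an average of two or more results.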

The test system of a further experiment is Streptococcus pneumoniae. Briefly: Bacterial susceptibility testing in liquid media (MIC), Streptococcus pneumoniae. It is filed as cell-based. Conditions: against Streptococcus pneumoniae; lowest concentration reducing growth by 80% or more, 37° C., 24 hrs. From the text:
(§1) Compounds may be tested for antimicrobial activity by susceptibility testing in liquid media. Compounds may be dissolved in dimethylsulfoxide and tested in 10 doubling dilutions in the susceptibility assays. The organisms used in the assay may be grown overnight on suitable agar media and then suspended in a liquid medium appropriate for the growth of the organism. The can be was a 0.5 McFarland and a further 1 in 10 dilution can be made into the same liquid medium to prepare the final organism suspension in 100 pt. Plates can be incubated under appropriate conditions at 37° C. for 24 hrs prior to reading. The Minimum Inhibitory Concentration (MIC) may be determined as the lowest drug concentration able to reduce growth by 80% or more.

The subject of a further experiment is EFM073. Briefly: Bacterial susceptibility testing in liquid media (MIC), EFM073. The class given is cell-based. As to conditions: strain EFM073.
From the text: as §1

Another experiment deals with SAU516. Briefly: Bacterial susceptibility testing in liquid media (MIC), SAU516. The class given is cell-based. As to conditions: strain SAU516.
From the text: as §1

The next experiment deals with HIN446. The experiment in a line: Bacterial susceptibility testing in liquid media (MIC), HIN446. The class given is cell-based. Conditions: strain HIN446.
From the text: as §1

Another experiment deals with MCA445. Briefly: Bacterial susceptibility testing in liquid media (MIC), MCA445. Conditions: strain MCA445. It is filed as cell-based.
From the text: as §1

For another experiment, the system named is SPN548. Briefly: Bacterial susceptibility testing in liquid media (MIC), SPN548. Conditions: strain SPN548. It is filed as cell-based.
From the text: as §1

Values after ≈ are worked out from the molar mass of the structure shown. Where only a bound is given, the exact number is not on record here.

The term IC50 denotes the concentration that inhibits the measured activity by half. Read a high IC50 as weaker potency. The MIC is the least concentration at which growth counts as inhibited. A low value points to a more susceptible organism.

`COC(=O)c1cnc(N2CCC(NC(=O)c3[nH]c(C)c(Cl)c3Cl)C3(C2)OCCO3)s1` (stereo not drawn) [Example 1, Methyl 2-(10-{[(3,4-dichloro-5-methyl-1H-pyrrol-2-yl)carbonyl]amino}-1,4-dioxa-7-azaspiro[4.5]dec-7-yl)-1,3-thiazole-5-carboxylate]: the half-maximal inhibitory concentration (IC50) in experiment [1] is 463 nM. The compound further registered an MIC in the experiment with Streptococcus pneumoniae of 1 µg/mL (≈ 2.1 µM).
`Cc1[nH]c(C(=O)NC2CCN(c3ncc(C(=O)O)s3)CC23OCCCO3)c(Cl)c1Cl` (stereo not drawn) [Example 16, 2-(11-{[(3,4-Dichloro-5-methyl-1H-pyrrol-2-yl)carbonyl]amino}-1,5-dioxa-8-azaspiro[5.5]undec-8-yl)-1,3-thiazole-5-carboxylic acid]: in experiment [1], the IC50 is < 9.77 nM. The compound also showed an MIC EFM073 against EFM073 of 1 µg/mL (≈ 2.1 µM). Moreover, in the experiment on SAU516, the MIC SAU516 is 2 µg/mL (≈ 4.21 µM). In addition, the MIC HIN446 against HIN446 was determined as 1 µg/mL (≈ 2.1 µM). The MIC MCA445 against MCA445 was 0.13 µg/mL (≈ 0.273 µM). Moreover, the MIC SPN548 in the experiment with SPN548 is < 0.063 µg/mL.
Turning to `CNC(=O)c1nc(N2CCC(NC(=O)c3[nH]c(C)c(Cl)c3Cl)C3(C2)OCCCO3)sc1C(=O)O` (stereo not drawn) [Example 18, 2-(11-{[(3,4-Dichloro-5-methyl-1H-pyrrol-2-yl)carbonyl]amino}-1,5-dioxa-8-azaspiro[5.5]undec-8-yl)-4-[(methylamino)carbonyl]-1,3-thiazole-5-carboxylic acid], the IC50 in experiment [1] was < 9.77 nM. This compound had an MIC EFM073 with EFM073 of 0.25 µg/mL (≈ 0.47 µM). The MIC SAU516 against SAU516 is 0.25 µg/mL (≈ 0.47 µM). The compound also displayed an MIC HIN446 against HIN446 of 0.5 µg/mL (≈ 0.939 µM). The MIC MCA445 against MCA445 is < 0.063 µg/mL. The MIC SPN548 against SPN548 was < 0.063 µg/mL.
`COC1(OC)CN(c2ncc(C(=O)O)s2)CCC1NC(=O)c1[nH]c(C)c(Cl)c1Cl` (stereo not drawn) [Example 20, 2-(4-{[(3,4-Dichloro-5-methyl-1H-pyrrol-2-yl)carbonyl]amino}-3,3-dimethoxypiperidin-1-yl)-1,3-thiazole-5-carboxylic acid]: in experiment [1], the IC50 is < 67.1 nM. This compound registered an MIC EFM073 in the experiment with EFM073 of 2 µg/mL (≈ 4.32 µM). In the experiment on SAU516, this compound yielded an MIC SAU516 of 2 µg/mL (≈ 4.32 µM). The compound further gave an MIC HIN446 in the experiment on HIN446 of 1 µg/mL (≈ 2.16 µM). In the experiment with MCA445, the MIC MCA445 came to 0.5 µg/mL (≈ 1.08 µM). Moreover, the MIC SPN548 in the experiment on SPN548 is 0.13 µg/mL (≈ 0.281 µM).
Compound `CONC(=O)c1cnc(N2CC[C@@H](NC(=O)c3[nH]c(C)c(Cl)c3Cl)[C@@H](n3ccnn3)C2)s1` [Example 120, 2-[(3S,4R)-4-{[(3,4-Dichloro-5-methyl-1H-pyrrol-2-yl)carbonyl]amino}-3-(1H-1,2,3-triazol-1-yl)piperidin-1-yl]-N-methoxy-1,3-thiazole-5-carboxamide] yielded an IC50 in experiment [1] of 19.6 nM.
As to `CCOC(=O)c1cccc2nc(N3CC[C@@H](NC(=O)c4[nH]c(C)c(Cl)c4Cl)[C@@H](n4ccnn4)C3)sc12` [Example 123, Ethyl 2-[(3S,4R)-4-{[(3,4-dichloro-5-methyl-1H-pyrrol-2-yl)carbonyl]amino}-3-(1H-1,2,3-triazol-1-yl)piperidin-1-yl]-1,3-benzothiazole-7-carboxy late], half-maximal inhibition in experiment [1] (IC50) was put at 218 nM.
As to `Cc1[nH]c(C(=O)N[C@@H]2CCN(c3nc4cccc(C(=O)O)c4s3)C[C@@H]2n2ccnn2)c(Cl)c1Cl` [Example 124, 2-[(3S,4R)-4-{[(3,4-Dichloro-5-methyl-1H-pyrrol-2-yl)carbonyl]amino}-3-(1H-1,2,3-triazol-1-yl)piperidin-1-yl]-1,3-benzothiazole-7-carboxylic acid], the IC50 in experiment [1] was < 9.77 nM.
Consider `CONC(=O)c1cccc2nc(N3CC[C@@H](NC(=O)c4[nH]c(C)c(Cl)c4Cl)[C@@H](n4ccnn4)C3)sc12` [Example 125, 2-[(3S,4R)-4-{[(3,4-Dichloro-5-methyl-1H-pyrrol-2-yl)carbonyl]amino}-3-(1H-1,2,3-triazol-1-yl)piperidin-1-yl]-N-methoxy-1,3-benzothiazole-7-carboxamide], for which, in experiment [1], the IC50 was < 9.77 nM.

The values are drawn from US20100286181A1, “PYRROLE DERIVATIVES WITH ANTIBACTERIAL ACTIVITY” (ASTRAZENECA AB, priority 2006, published 2010).
